From patent US11629141B2, “Proteasome inhibitors and uses thereof” (CORNELL UNIVERSITY, priority 2015, dated 2023)
pEC50, pIC50: −log10 of the molar value. Entries after “also recorded” stand apart in the source; their conditions may differ. Like-named read-outs stand apart in the source and are kept apart here. Blank lines part the entries; values can stand above or below the compound they belong to.

Assays:
[1] = target: T1, human constitutive proteasome β5c (Homo sapiens, UniProt P28074); assay: IC50 against chymotryptic β5c activity of human constitutive proteasome (96-well plate, Suc-LLVY-AMC); format: biochemical
T1 construct: purchased Boston Biochem Inc
Method: A 96-well-plate assays were used to determine the IC50s against the chymotryptic β5 activities of the proteasomes. Both human constitutive proteasome and immunoproteasome were purchased from Boston Biochem Inc. 1 μL of 100× compound in DMSO at designated concentrations were spotted at the bottom of the wells. DMSO was used as a control. Final concentrations of the inhibitors were from 100 μM to 0.098 μM. The hydrolysis of the substrate over time in each well was monitored at excitation 360 nm, emission 460 nm for 90 minutes. IC50s were estimated by fitting the velocities of hydrolysis against compound concentrations using PRISM. […] Suc-LLVY-AMC was used for βc at final concentration of 25 μM, and Ac-ANW-AMC for b5i at final concentration of 15 μM. SDS (0.02%) was used as activator, and 0.01% BSA was used in the reaction buffer.
The foregoing features of these AsnEDA encouraged a further round of SAR studies (Table 5) based on varying the carboxylic acid at the ethylenediamine, the N-cap at the Asn, and the side chain of the Asn, based on PKS21004. All compounds listed in the Table 5 were synthesized as described in Examples 6-77. All final compounds were confirmed by NMR and HRMS. IC50s of all compounds against β5i and β5c (Table 5), β1i, β2i, β1c and β2c were determined following a reported method (Lin et al., “N,C-Capped Dipeptides With Selectivity for Mycobacterial Proteasome Over Human Proteasomes: Role of S3 and S1Binding Pockets,” J Am Chem Soc. 135:9968-9971 (2013), which is hereby incorporated by reference in its entirety). […] The [1,1′-biphenyl]-3-carboxamide of PKS21004 was then modified with the following substituents: 4′-fluoro (PKS21026), 4′-cyano (PKS21028), 4-fluoro (PKS21196), 4,3′-difluoro (PKS21195) and 4,2′-difluoro (PKS21187).

[2] = target: T2, human immunoproteasome β5i (Homo sapiens, UniProt P28062); assay: IC50 against chymotryptic β5i activity of human immunoproteasome (96-well plate, Ac-ANW-AMC); format: biochemical
T2 construct: purchased Boston Biochem Inc
Method: A 96-well-plate assays were used to determine the IC50s against the chymotryptic β5 activities of the proteasomes. Both human constitutive proteasome and immunoproteasome were purchased from Boston Biochem Inc. 1 μL of 100× compound in DMSO at designated concentrations were spotted at the bottom of the wells. DMSO was used as a control. […] The hydrolysis of the substrate over time in each well was monitored at excitation 360 nm, emission 460 nm for 90 minutes. IC50s were estimated by fitting the velocities of hydrolysis against compound concentrations using PRISM. […] SDS (0.02%) was used as activator, and 0.01% BSA was used in the reaction buffer.

Plasmodium falciparum = assay: Growth of Plasmodium falciparum in red blood cells (SYBR Green, 72 hours); format: cell-based; conditions: for EC50: P.f. 3D7, growth in red blood cells, read-out: EC50 (nM) (P.f.)
Method: Continuous in vitro cultures of Plasmodium falciparum: were maintained in human red blood cells (RBC) diluted to a hematocrit of 5% in RPMI 1640 medium with HEPES and Hypoxanthine and completed with 0.5% Albumax II (Invitrogen), 0.25% sodium bicarbonate, and 0.1 mg/ml gentamicin. Parasites were incubated at 37° C. in a gas mixture of 5% oxygen, 5% carbon dioxide, and 90% nitrogen.
Parasite sensitivity to novel compounds were determined using a SYBR Green (Invitrogen S1046) drug assay protocol. P. falciparum of various clinic stains were cultured with compounds at concentrations in a series of dilution in a clear, sterile 96-well plate for 72 hours. Subsequently, 150 μl of the cultures were transferred to a black 96-well plate and placed in the freezer for red blood cell lysis. The plates were thawed and suspended in a Sybr Green Lysis buffer. GraphPad Prism was used to analyze the raw data collected […]. Drug concentrations were converted to logarithms, normalized, and then curve fitted by non-linear regression to obtain EC50 values.
Plasmodium falciparum: parasites were cultured in human red cells. Drug assays were run in 96 well plates at a total volume of 200 μl. Assays were set up at a starting parasitemia (percent of infected red cells) of 0.5%. Test compounds were plated at concentrations of 2778 nM to 0.4 nM. The test plates were grown under standard low oxygen conditions at 37° C. for 72 hours. At that time the plates were prepared for growth determination, first the plates were frozen and thawed to lyse the red blood cells, 150 μl of the lysed thawed culture was transferred to a black 96 well plate, and mixed in a lysis buffer with SYBR green DNA dye. The fluorescence of each well was recorded in a plate reader with excitation wavelength 490 nm and emission wavelength 530 nm and normalized relative to DMSO control. The EC50s were determined using Prism software.

Pf20S β5 = assay: Labeling of Pf20S active subunits by activity probe MV151 in Pf lysates; format: biochemical, P. falciparum; conditions: 1 hour with inhibitor, then MV151 (2 μM) 1 hour
Method: Pf lysates were incubated with inhibitors at indicated concentrations for 1 hour prior to incubation with MV151 (2 μM) for an additional hour. SDS pages were scanned on a Typhoon fluorescent scanner. […] BTZ was used as a positive control.

β5c in HepG2 cells = target: T3, β5c in HepG2 cells (Homo sapiens, UniProt P28074); assay: Intracellular β5c inhibition in HepG2 cells (suc-LLVY-luciferin); format: cell-based; conditions: 2 hours treatment, read-out: IC50 HepG β5c
T3 construct: endogenous in cells; host or cells: HepG2
Text: (§1) Data were average of three independent experiments.
(§2) IC50 values with both substrates were identical and indicated cell-penetrating ability. […] No β5i activity was detected in HepG2 cells using (Ac-ANW)2—R110 as substrate (FIG. 2A).

[3] = system: MM1.S multiple myeloma cells; assay: Cell viability assay, MM.1S; format: cell-based; conditions: Homo sapiens, cytotoxicity, 72 hours
Method: (§3) Multiple myeloma cell lines MM.1 S (200,000 cells/mL) and RPMI 8226 (200,000 cells/mL), B lymphoma cell line Karpas1106P (800,000 cells/mL), and liver cancer cell line HepG2 (12,000 cells/mL) were used to determine the cytotoxicity of compounds. Cells were cultured at 37° C. in a humidified air/5% CO2 atmosphere in medium supplemented with 10% fetal bovine serum, except for the medium for Karpas-1106P cells which contained 20% fetal bovine serum, and 100 units/ml penicillin/100 […] streptomycin in RPMI 1640 medium. 12,000 cells/well. Cells plated in a 96-well plate were treated with compounds at the indicated concentrations for 72 hours at 37° C. in a tissue culture incubator with 5% CO2. Viable cells were counted using Cell-titer/glom assay kit. EC50s were calculated using PRISM (Graphpad).

HepG2 liver cancer cells = assay: Cell viability assay, HepG2; format: cell-based; conditions: Homo sapiens, cytotoxicity, 72 hours
Method: as §3

[4] = target: T4, β5i in Karpas 1106P cells (Homo sapiens, UniProt P28062); assay: Intracellular β5i inhibition in Karpas 1106P cells ((Ac-ANW)2-R110); format: cell-based; conditions: 2 hours treatment
T4 construct: endogenous in cells; host or cells: Karpas 1106P
Text: as §1, §2

[5] = system: RPMI 8226 multiple myeloma cells; assay: Cell viability assay, RPMI 8226; format: cell-based; conditions: Homo sapiens, cytotoxicity, 72 hours
Method: as §3

hu i-20S β5i = target: T5, hu i-20S β5i (Homo sapiens, UniProt P28062); assay: Kinetic analysis, substrate titration of hu i-20S steady state velocities; format: biochemical
T5 construct: purchased Boston Biochem Inc
Method: FIGS. 1A-1E are graphs showing inhibition modality of PKS21004 against human proteasomes. Washout of c-20S from the preincubated c-20S and […] to recover the β5c activity (FIG. 1A). Substrate titration of hu i-20S (FIG. 1B) and c-20S (FIG. 1D) steady state velocities in the presence of PKS21004 at the concentrations indicated next to each curve. Data as in (FIG. 1B) were plotted double reciprocal in (FIG. 1C), and (FIG. 1D) in (FIG. 1E).
A washout experiment was used to confirm the reversibility of this class of proteasome inhibitors, as expected from their non-covalent chemistry.

[6] = system: Karpas1106P B lymphoma cells; assay: Cell viability assay, Karpas1106P; format: cell-based; conditions: Homo sapiens, Karpas-1106P; cytotoxicity, 72 hours
Method: as §3

β5 in Karpas 1106P cells = assay: Intracellular β5 inhibition in Karpas 1106P cells (suc-LLVY-luciferin); format: cell-based; conditions: 2 hours treatment
Text: as §1, §2

Pf Gametocytes = assay: Gametocyte killing assay (DilC1(5), flow cytometry); format: cell-based; conditions: Plasmodium falciparum; NF54 peg4-tdTomato, 72 hour incubation; read-out: EC50 against Pf Gametocytes
Method: Asexual replication of NF54 peg4-tdTomato parasites was eliminated by treating with 50 mM GlcNAc and 20 U/mL Heparin for 3 days. NF54 peg4-tdTomato parasites then were maintained using standard culture techniques. Gametocytes were induced synchronously according to Fivelman et al., “Improved Synchronous Production of Plasmodium Falciparum Gametocytes in Vitro,” Mol Biochemo Parasitol. 154(1):119-123 (2007), which is hereby incorporated by reference in its entirety. Asexual replication was eliminated by treating with 50 mM GlcNAc for 3 days. Gametocyte killing assays were setup on days 5 and 10 in triplicate 96-well format at 1% hematocrit and 2% gametocytemia. Compounds were setup in triplicate and serially diluted 3-fold. In addition, 6 solvent controls (DMSO) were distributed evenly across the plate. Following a 72 hour incubation, Stage III-IV (Day 5-7) and Stage IV-V (Day 10-12), (start the incubation in the afternoon on Day 5 and Day 10, take out plate for assay on Day8 and Day13 afternoon) cultures were stained with 16 nM Hoechst 33342 and 50 nM DilC1(5) for 30 min at 37 C. Using a Cytek DxP12 flow cytometer, gametocytemia was determined by gating for DNA+, hemozoin-high cells and gametocyte viability was inferred based on mitochondrial membrane potential-dependent accumulation of DilC1(5) for 2000-3000 gametocytes (Tanaka et al., “Potent Plasmodium Falciparum Gametocytocidal Activity of Diaminonaphthoquinones, Lead Antimalarial Chemotypes Identified in an Antimalarial Compound Screen,” Antimicrob. Agents Chemother. 2015, 59:1389 (2015), which is hereby incorporated by reference in its entirety). Mean DilC1(5) signal was normalized to solvent control and the overall minimum and used to calculate the EC50 (FIG. 3 and Table 4).

[7] = β5c, substrate Suc-LLVY-AMC, read-out: IC50 Hu c-20S (Suc-LLVY-AMC)
[8] = β5i, substrate Ac-ANW-AMC, read-out: IC50 Hu i-20S (Ac-ANW-AMC)

Structure (SMILES): CC(C)(C)NC(=O)C[C@H](NC(=O)CCc1ccccc1)C(=O)NCCNC(=O)c1ccc(-c2ccccc2)cc1 [PKS21003]
pIC50 [1, 7]: < 4.00
pIC50 [2, 8]: < 4.00
pEC50 (Plasmodium falciparum; D6, Erythrocyte, read-out: EC50s against P. falciparum strain D6): < 5.56
pEC50 (Plasmodium falciparum; DD2, Erythrocyte, read-out: EC50s against P. falciparum strain Dd2): < 5.56
EC50 (Plasmodium falciparum; Erythrocyte): > 2770 nM
pEC50 (Plasmodium falciparum; Erythrocyte, read-out: EC50s against P. falciparum strain IPC 3663): < 5.56
pEC50 (Plasmodium falciparum; Erythrocyte, read-out: EC50s against P. falciparum strain IPC 4884): < 5.56
pEC50 (Plasmodium falciparum; Erythrocyte, read-out: EC50s against P. falciparum strain IPC 5188): < 5.56
pEC50 (Plasmodium falciparum; Erythrocyte, read-out: EC50s against P. falciparum strain Sb1-a6): < 5.56
pEC50 (Plasmodium falciparum; Erythrocyte, read-out: EC50s against P. falciparum strain V1S): < 5.56
pEC50 (Plasmodium falciparum; HB3, Erythrocyte, read-out: EC50s against P. falciparum strain HB3): < 5.56
labeling of Pf20S β5 by MV151 (Pf20S β5): did not

pIC50 [1, 7]: 5.94
pIC50 [2, 8]: 6.96
EC50 (Plasmodium falciparum; Erythrocyte): 100 nM
Structure (SMILES): CC(C)(C)NC(=O)C[C@H](NC(=O)CCc1ccccc1)C(=O)NCCNC(=O)c1cccc(-c2ccc(F)cc2)c1 [PKS21026]

Structure (SMILES): Cc1ccc(S(=O)(=O)N[C@@H](CC(=O)NC(C)(C)C)C(=O)NCCNC(=O)c2cc(-c3ccccc3F)ccc2F)cc1 [PKS21221]
pIC50 [1]: 6.97
pIC50 ([1]; b406, read-out: IC50 against β5c): 7.15
pIC50 (β5c in HepG2 cells): 5.70
pEC50 [3]: 7.02
pEC50 (HepG2 liver cancer cells): 5.52
pIC50 [4]: 6.76
pEC50 [5]: 7.12
α for i-20S (β5i) (hu i-20S β5i; fit to equation for noncompetitive inhibitors): 0.26
modality of inhibition of β5i (hu i-20S β5i; with respect to substrate): noncompetitively inhibits; also recorded: noncompetitive
pIC50 ([2]; IC50 Hu i-20S (Ac-ANW-AMC), β5i, substrate Ac-ANW-AMC): 8.39
pIC50 ([2]; b406, read-out: IC50 against β5i): 8.62
pEC50 [6]: 6.08
pIC50 (β5 in Karpas 1106P cells): 6.93
EC50 (Plasmodium falciparum; Erythrocyte): 0.55 nM

Structure (SMILES): Cc1cc(C(=O)N[C@@H](CC(=O)NC(C)(C)C)C(=O)NCCNC(=O)c2cc(-c3ccccc3)ccn2)no1 [PKS21224]
pIC50 [1, 7]: 4.47
pEC50 (Pf Gametocytes): 6.79
pIC50 [2, 8]: 6.13
EC50 (Plasmodium falciparum; Erythrocyte): 11 nM
